The source of these data is DBAASP.

Structures are written as SMILES. ≈ marks a conversion by molar mass, not a printed value.

Among the test systems are Streptococcus mutans; Pseudomonas aeruginosa; Bacillus subtilis 168; Staphylococcus aureus; Escherichia coli B; Escherichia coli BL21; Escherichia coli MG1655.
Assay in all cases: ≥ marks a high value that may be exact or a test limit, other limits are often not marked, values filed in µg/mL are converted to µM
Experiment [1] deals with Bacillus subtilis ATCC 6633.
In experiment [2] the test system is Klebsiella pneumoniae ATCC 27736.
In experiment [3] the test system is Pseudomonas aeruginosa ATCC BAA-427.
Experiment [4] relates to Micrococcus luteus CCM 144.
Experiment [5] concerns Candida albicans F7-39/IDE99.
For experiment [6], the system named is Pseudomonas aeruginosa H1001.
The subject of experiment [7] is Staphylococcus epidermidis.

Molecule `C[C@H](NC(=O)[C@H](CO)NC(=O)[C@H](C)NC(=O)[C@H](Cc1ccccc1)NC(=O)[C@H](Cc1c[nH]c2ccccc12)NC(=O)[C@H](Cc1c[nH]c2ccccc12)NC(=O)[C@H](Cc1c[nH]c2ccccc12)NC(=O)[C@H](CCCN=C(N)N)NC(=O)[C@H](CCCN=C(N)N)NC(=O)[C@@H](N)CCCN=C(N)N)C(=O)N[C@@H](CO)C(=O)N[C@@H](C)C(=O)N[C@@H](CCCN=C(N)N)C(=O)N[C@@H](CCCN=C(N)N)C(=O)N[C@@H](CCCN=C(N)N)C(=O)N[C@@H](Cc1c[nH]c2ccccc12)C(=O)N[C@@H](Cc1c[nH]c2ccccc12)C(=O)N[C@@H](Cc1c[nH]c2ccccc12)C(=O)N[C@@H](Cc1ccccc1)C(N)=O` [RRRWWWFASASARRRWWWF] showed an MIC against Streptococcus mutans of 11.6 µM (≈ 32 µg/mL).

Take `CC[C@H](C)[C@H](NC(=O)CNC(=O)[C@H](CCCN=C(N)N)NC(=O)[C@H](Cc1ccccc1)NC(=O)[C@@H](NC(=O)[C@H](Cc1cnc[nH]1)NC(=O)[C@H](Cc1cnc[nH]1)NC(=O)[C@H](Cc1ccccc1)NC(=O)[C@@H](N)Cc1ccccc1)[C@@H](C)CC)C(=O)N[C@H](C(=O)N[C@@H](Cc1cnc[nH]1)C(=O)N[C@H](C(=O)NCC(=O)N[C@@H](CCCCN)C(=O)N[C@H](C(=O)N[C@H](C(=O)N[C@@H](Cc1cnc[nH]1)C(=O)N[C@@H](CCCN=C(N)N)C(=O)N[C@@H](CC(C)C)C(=O)N[C@H](C(=O)N[C@H](C(=O)NCC(N)=O)[C@@H](C)O)C(C)C)[C@@H](C)CC)[C@@H](C)O)[C@@H](C)CC)C(C)C` [FFHHIFRGIVHIGKTIHRLVTG]: the MIC in experiment [1] is 6 µM (≈ 15.5 µg/mL); in experiment [2], 3 µM (≈ 7.76 µg/mL); in experiment [3], 4 µM (≈ 10.3 µg/mL).

Regarding `CC[C@H](C)[C@H](NC(=O)[C@H](CCCCN)NC(=O)CNC(=O)[C@H](Cc1c[nH]c2ccccc12)NC(=O)[C@H](CC(N)=O)NC(=O)[C@@H](N)CCCCN)C(=O)N[C@@H](CC(C)C)C(=O)N[C@@H](CCCCN)C(=O)N[C@@H](Cc1cnc[nH]1)C(=O)N[C@H](C(=O)N[C@H](C(=O)N[C@@H](CCCCN)C(N)=O)[C@@H](C)CC)[C@@H](C)CC` [KNWGKILKHIIK], the MIC against Pseudomonas aeruginosa came to 31.7 µM (≈ 46.8 µg/mL); in experiment [4] it was 4.5 µM (≈ 6.65 µg/mL); against Bacillus subtilis 168 it was 5.8 µM (≈ 8.57 µg/mL); with Staphylococcus aureus, 76.7 µM (≈ 113 µg/mL); in [5], 7.7 µM (≈ 11.4 µg/mL); against Escherichia coli B it was 11.3 µM (≈ 16.7 µg/mL).

With `CC[C@H](C)[C@@H]1NC(=O)[C@H](CCCCN)NC(=O)[C@H](CCCCN)NC(=O)[C@@H]2CSSC[C@H](NC(=O)[C@H](C)NC(=O)[C@H](C(C)C)NC(=O)[C@@H](NC(=O)[C@@H](NC(=O)[C@@H](NC(=O)[C@H](CCCCN)NC(=O)[C@H](CCCCN)NC(=O)[C@@H](NC(=O)[C@H](CC(=O)O)NC(=O)[C@@H](N)CC(C)C)C(C)C)[C@@H](C)CC)[C@@H](C)CC)CSSC[C@@H](C(=O)N3CCC[C@H]3C(=O)N[C@@H](CCCCN)C(=O)O)NC1=O)C(=O)N[C@@H](CCCCN)C(=O)N[C@@H]([C@@H](C)CC)C(=O)N[C@@H](CCCN=C(N)N)C(=O)N1CCC[C@H]1C(=O)N[C@@H](CC(N)=O)C(=O)N1CCC[C@H]1C(=O)N[C@@H](C)C(=O)N2` [LDVKKIICVACKIRPNPACKKICPK], the MIC against Pseudomonas aeruginosa was over 100 µM; in experiment [4] it was 0.8 µM (≈ 2.22 µg/mL); in the experiment with Bacillus subtilis 168 it was 1.5 µM (≈ 4.17 µg/mL); against Staphylococcus aureus, over 100 µM; in [5] it was 18.7 µM (≈ 52 µg/mL); against Escherichia coli B, at least 32.5 µM.

On to `CC[C@H](C)[C@H](NC(=O)[C@H](CCCN=C(N)N)NC(=O)[C@H](CCCN=C(N)N)NC(=O)[C@@H]1CCCN1C(=O)[C@@H]1CCCN1C(=O)[C@H](CCCN=C(N)N)NC(=O)[C@@H]1CCCN1C(=O)[C@H](CCCN=C(N)N)NC(=O)[C@@H]1CCCN1C(=O)[C@H](CC(C)C)NC(=O)[C@H](Cc1ccc(O)cc1)NC(=O)[C@@H]1CCCN1C(=O)[C@@H]1CCCN1C(=O)[C@H](CCCCN)NC(=O)[C@H](CC(=O)O)NC(=O)[C@@H](N)C(C)C)C(=O)N[C@@H](Cc1ccc(O)cc1)C(=O)N[C@@H](CC(N)=O)C(=O)N[C@@H](Cc1cnc[nH]1)C(=O)NCC(=O)O` [VDKPPYLPRPRPPRRIYNHG], for which the MIC in experiment [6] turned out to be 0.123 µM (≈ 0.3 µg/mL).

As to `CC[C@H](C)[C@H](NC(=O)[C@H](Cc1cnc[nH]1)NC(=O)[C@H](CC(C)C)NC(=O)[C@H](CC(C)C)NC(=O)[C@@H](NC(=O)[C@H](CCCCN)NC(=O)[C@@H](N)C(C)C)[C@@H](C)O)C(=O)N[C@@H](Cc1ccccc1)C(=O)N[C@@H](CCC(N)=O)C(=O)N[C@@H](CCCN=C(N)N)C(=O)N[C@@H](Cc1ccccc1)C(N)=O` [VKTLLHIFQRF], the MIC with Streptococcus mutans was at least 44.6 µM.

With `CC[C@H](C)[C@H](NC(=O)[C@H](CCCN=C(N)N)NC(=O)[C@H](CCCN=C(N)N)NC(=O)[C@@H]1CCCN1C(=O)CNC(=O)[C@H](CCCN=C(N)N)NC(=O)[C@@H]1CCCN1C(=O)[C@H](CCCN=C(N)N)NC(=O)[C@@H]1CCCN1C(=O)[C@H](CC(C)C)NC(=O)[C@H](Cc1ccc(O)cc1)NC(=O)[C@@H]1CCCN1C(=O)[C@@H]1CCCN1C(=O)[C@H](CCCCN)NC(=O)[C@H](CC(=O)O)NC(=O)[C@@H](N)C(C)C)C(=O)N[C@@H](Cc1ccc(O)cc1)C(=O)N[C@@H](CC(N)=O)C(=O)N[C@@H](CCCN=C(N)N)C(=O)NCC(=O)O` [VDKPPYLPRPRGPRRIYNRG], the MIC in experiment [6] worked out at 0.0872 µM (≈ 0.21 µg/mL).

`CC[C@H](C)[C@H](N)C(=O)N[C@@H](CCCCN)C(=O)N[C@@H](CC(C)C)C(=O)N[C@@H](CC(C)C)C(=O)N[C@@H](CS)C(=O)N[C@@H](CCCN=C(N)N)C(=O)N[C@H](C(=O)N[C@@H](Cc1cnc[nH]1)C(=O)N[C@@H](CCCCN)C(=O)N[C@@H](CCCCN)C(=O)O)C(C)C` [IKLLCRVHKK] showed a minimal inhibitory concentration (MIC) in [6] of 10.1 µM (≈ 12.5 µg/mL).

For the molecule `CC[C@H](C)[C@H](NC(=O)CNC(=O)[C@H](CCCN=C(N)N)NC(=O)[C@H](Cc1ccccc1)NC(=O)[C@@H](NC(=O)[C@H](Cc1cnc[nH]1)NC(=O)[C@H](Cc1cnc[nH]1)NC(=O)[C@H](Cc1ccccc1)NC(=O)[C@@H](N)Cc1ccccc1)C(C)C)C(=O)N[C@H](C(=O)N[C@@H](Cc1cnc[nH]1)C(=O)N[C@H](C(=O)NCC(=O)N[C@@H](CCCCN)C(=O)N[C@H](C(=O)N[C@H](C(=O)N[C@@H](Cc1cnc[nH]1)C(=O)N[C@@H](CCCN=C(N)N)C(=O)N[C@@H](CC(C)C)C(=O)N[C@H](C(=O)N[C@H](C(=O)NCC(N)=O)[C@@H](C)O)C(C)C)[C@@H](C)CC)[C@@H](C)O)C(C)C)C(C)C` [FFHHVFRGIVHVGKTIHRLVTG], the MIC in experiment [1] came to 8 µM (≈ 20.5 µg/mL); in experiment [2], 6 µM (≈ 15.3 µg/mL); in [3] it was 12 µM (≈ 30.7 µg/mL).

In the experiment on Streptococcus mutans, `CC(C)C[C@H](NC(=O)[C@H](CC(C)C)NC(=O)[C@H](CCCCN)NC(=O)[C@H](CCCCN)NC(=O)[C@H](CC(C)C)NC(=O)[C@@H](N)CCCCN)C(=O)N[C@@H](CCCCN)C(=O)N[C@@H](CCCN=C(N)N)C(=O)N[C@@H](Cc1c[nH]c2ccccc12)C(=O)N[C@@H](CCCN=C(N)N)C(=O)N[C@@H](CCCN=C(N)N)C(=O)N[C@@H](Cc1c[nH]c2ccccc12)C(=O)N[C@@H](Cc1c[nH]c2ccccc12)C(=O)N[C@@H](CCCN=C(N)N)C(=O)O` [KLKKLLKRWRRWWR] yielded a minimum inhibitory concentration (MIC) of 3.9 µM (≈ 8 µg/mL).

For `CC[C@H](C)[C@H](NC(=O)[C@H](CCCCN)NC(=O)[C@H](CC(C)C)NC(=O)[C@H](CC(C)C)NC(=O)[C@H](CCC(N)=O)NC(=O)[C@H](CCCCN)NC(=O)[C@@H](N)C(C)C)C(=O)N[C@@H](Cc1ccccc1)C(=O)N[C@@H](CC(N)=O)C(=O)N[C@@H](CCCN=C(N)N)C(=O)N[C@@H](Cc1ccccc1)C(N)=O` [VKQLLKIFNRF], the MIC in the experiment on Streptococcus mutans stood at 31.8 µM (≈ 44.7 µg/mL).

For `CC[C@H](C)[C@H](NC(=O)[C@H](CC(C)C)NC(=O)[C@H](CCCCN)NC(=O)[C@@H](NC(=O)[C@@H](NC(=O)[C@H](Cc1cnc[nH]1)NC(=O)[C@@H]1CCCN1C(=O)[C@H](CC(C)C)NC(=O)[C@@H](NC(=O)[C@H](CCCCN)NC(=O)[C@H](C)NC(=O)[C@H](CC(C)C)NC(=O)[C@H](CC(C)C)NC(=O)[C@H](CO)NC(=O)[C@H](C)NC(=O)[C@H](CCSC)NC(=O)CN)C(C)C)C(C)C)C(C)C)C(=O)N[C@@H](CCCCN)C(N)=O` [GMASLLAKVLPHVVKLIK], the MIC with Pseudomonas aeruginosa stood at 31.7 µM (≈ 60.8 µg/mL); in [4], 1.7 µM (≈ 3.26 µg/mL); in the experiment with Bacillus subtilis 168, 2.5 µM (≈ 4.79 µg/mL); against Staphylococcus aureus, 3.7 µM (≈ 7.09 µg/mL); in experiment [5], 25 µM (≈ 47.9 µg/mL); in the experiment with Escherichia coli B, 3.7 µM (≈ 7.09 µg/mL).

For the molecule `CC[C@H](C)[C@H](NC(=O)[C@H](CCCCN)NC(=O)[C@H](CCCN=C(N)N)NC(=O)[C@H](CCCCN)NC(=O)[C@H](CCCCN)NC(=O)[C@H](CCCCN)NC(=O)[C@H](Cc1c[nH]c2ccccc12)NC(=O)[C@H](CCCCN)NC(=O)[C@H](CC(C)C)NC(=O)[C@H](Cc1c[nH]c2ccccc12)NC(=O)[C@H](CCCN=C(N)N)NC(=O)[C@H](CC(=O)O)NC(=O)[C@H](CCSC)NC(C)=O)C(=O)N[C@@H](CCCN=C(N)N)C(=O)N[C@@H](CCCN=C(N)N)C(=O)N[C@@H](CCCN=C(N)N)C(=O)N[C@@H](CCCN=C(N)N)C(=O)N[C@@H](CCCN=C(N)N)C(=O)N[C@@H](CCCN=C(N)N)C(=O)N[C@@H](CCCN=C(N)N)C(=O)N[C@@H](CCCN=C(N)N)C(=O)N[C@@H](CCCN=C(N)N)C(=O)N[C@@H](CCCN=C(N)N)C(=O)N[C@@H](CCCN=C(N)N)C(N)=O` [MDRWLKWKKKRKIRRRRRRRRRRR], the MIC against Escherichia coli BL21 was found to be 6 µM (≈ 21.5 µg/mL); in experiment [7], 4 µM (≈ 14.3 µg/mL); with Escherichia coli MG1655, 12 µM (≈ 42.9 µg/mL).

What is called MIC is the smallest concentration in the dilution series that meets the test's criterion for growth inhibition.
